“And” between values parts separate entries of the source, which are not always exact repeats. Equal entries are not always repeated.
Assays:
[1] = Acute toxicity in the mouse (oral); conditions: in vivo, mouse (male)
Protocol: (§1) The test compounds shown in Table 2 were administered orally to male mice and rats in the form of a suspension in a 1% solution of sodium carboxymethyl cellulose. The LD50 (lethal dose 50%) was calculated by the method of Litchfield and Wilcoxon.

[2] = Aggressive behavior elicited by foot shock; format: in vivo; conditions: oral
From the text: The aggressive behavior of test animals was elicited by a conventional foot shock procedure after administration of Compounds 1 and 4.

[3] = Postural tonus in restrained animals; format: in vivo; conditions: for reduction in postural tonus: more pronounced effect of compound 4 especially at 30 mg/kg
From the text: The final observations were concerned with the influence of the test compounds on postural tonus. Evaluationg postural tonus in the animals kept in restraint cages was somewhat difficult. It was possible to judge this aspect by pulling the hind quarters of the animals out of the cage and observing whether the animals was capable of returning spontaneously to its position inside the cage, which control animals were able to do immediately.

[4] = Motor coordination in the rat (Rota-rod method, Dunham and Miya); format: in vivo
Protocol: The method of Dunham and Miya was used, which consists in placing the test animal on a rod rotating at 14 r.p.m., and recording the percentage of animals which fall off within 2 minutes. The test compound 1 was administered orally to the animals, in the various doses shown in Table 1, as a suspension in 1% sodium carboxymethyl cellulose solution. The animals were then tested 30 minutes and 60 minutes after the administration of the test compound.

[5] = Anti-convulsant activity in the mouse (convulsions induced by 1,5-pentamethylenetetrazole); format: in vivo; conditions: 30 min before pentamethylenetetrazole s.c.
Protocol: The inhibition of convulsions induced by 1,5-pentamethylenetetrazole was tested by the Clen method. The test compounds were administered orally to the mice, in the doses shown in Table 3, in the form of suspensions in 1% sodium carboxymethyl cellulose solution, and 30 minutes later the test animals were injected subcutaneously with […] of 1,5-pentamethylenetetrazole. The number of mice protected from lethal extensorial tonic spasms, per group of 10 test animals, was recorded.

dorsal hippocampus = assay: Hippocampal after-discharge (stimulation of dorsal hippocampus); format: in vivo; conditions: 7.5 mg/kg intragastric; for Duration of Hippocampal After-Discharge: individual animals
Protocol: The test animals for this study were also prepared according to the technique described by Monnier and Gangloff (infra B, page 30) and the animals were kept in restraint cages in a relatively soundproof room.
The activity of test compounds 1 and 4 was assessed in identical groups of test animals for each compound, with identical numbers of animals for hippocampal after-discharges and for amygdaloid after-discharges. A dose of 7.5 mg/kg of each test compound was adminstered by the intragastric route. In each animal, after-discharges were triggered every 45 minutes after the administration of a test compound.
The stimulation consisted of a series of waves with a duration of 3 m sec., delivered at a frequency of 40 c/sec., with 5 seconds as the total duration of the stimulation. The shocks were delivered by a Neurovar neurostimulator (Alvar Electronic), coupled to a CRC cathode oscilloscope (type OC 343). Cerebral electric activity was recorded by REEGA MINI HUIT electroencephalograph (Alvar Electronic).

[6] = Myorelaxant activity in the mouse (traction test); format: in vivo
Protocol: This was determined by the traction test of Joulon Courvoisier, following Boissier and Simon, in which the mouse is suspended by its front paws to a horizontal metal wire, and the animal's capacity to get up with its hind paws is observed. The test compounds were administered orally to the animals, in the doses shown in Table 5, as suspensions in 1% sodium carboxymethyl cellulose solution; and the animals were tested 30 minutes and 180 minutes after administration. The test animals were deemed to be myorelaxant if unable to get up within 5 seconds.

[7] = Effect on muscular relaxation in mice (30° inclined screen, Randall); format: in vivo; conditions: for ED50: Mus musculus, po, muscular relaxation, read-out: ED50 (and C.L.)
Protocol: The method utilized was the procedure described by Randall (1961) using a 30° inclined screen.

[8] = Acute toxicity in the rat (oral); conditions: in vivo
Protocol: as §1

[9] = Hypnotic activity comparison (Janssen 1959); format: in vivo
Protocol: Toxicity in test animals to the test compounds in terms of LD50 after oral and intraperitoneal administration was determined according to the procedure of Litchfield and Wilcoxan (1949) and the hypnotic effect on test animals was determined in accordance with the method of Janssen (1959).

[10] = Potentiation of narcosis (hexobarbitone sodium) in the mouse, Winter method; format: in vivo; conditions: hexobarbitone sodium 80 mg/kg i.p., control 33.3
Protocol: The Winter method was used, in which a state of narcosis is induced by the intraperitoneal administration of 80 mg/kg of hexobarbitone sodium, and is assessed by the loss of the righting reflex in the test animal. […] orally to the animals, in doses shown in Table 4, as suspensions in 1% sodium carboxymethyl cellulose solution; and the prolongation of narcosis in the animals thus treated was observed, by comparison with controls which received only the hexobarbitone administration.

[11] = Conditioned avoidance response (shuttle box); format: in vivo; conditions: for Number of Conditioned Avoidance Responses: CMC 1% 16.7 ± 0.3
Protocol: Conditioned avoidance response by trained animals in a conventional shuttle box procedure was determined after oral administration of Compounds 1 and 4.

SMILES: C#CCN1C(=O)CN=C(c2ccccc2)c2cc(Cl)ccc21 [Compound 1, 7-chloro-2,3-dihydro-5-phenyl-1-propargyl-1H-1,4-benzodiazepin-2-one]
- LD50 [1]: 1300 mg/kg
- ED50 [2]: 3.3 mg/kg
- reduction in postural tonus [3]: slight reduction in the tonus
- Percentage of animals falling within 2 minutes ([4]; 3 mg/kg oral, 30 minutes after administration): 0%
- Percentage of animals falling within 2 minutes ([4]; 3 mg/kg oral, 60 minutes after administration): 0%
- Percentage of animals falling within 2 minutes ([4]; 6 mg/kg oral, 30 minutes after administration): 50%
- Percentage of animals falling within 2 minutes ([4]; 6 mg/kg oral, 60 minutes after administration): 17%
- Percentage of animals falling within 2 minutes ([4]; 12 mg/kg oral, 30 minutes after administration): 100%
- Percentage of animals falling within 2 minutes ([4]; 12 mg/kg oral, 60 minutes after administration): 50%
- No. of Animals Protected ([5]; 0.5 mg/kg oral): 0/10
- No. of Animals Protected ([5]; 1.0 mg/kg oral): 5/10
- No. of Animals Protected ([5]; 2.0 mg/kg oral): 9/10
- effect on duration of hippocampal after-discharge (dorsal hippocampus): markedly increased the duration of after-discharges
- Duration of Hippocampal After-Discharge (dorsal hippocampus; 45 Mins.): 25 s and 14 s and 23 s and 18 s
- Duration of Hippocampal After-Discharge (dorsal hippocampus; 90 Mins.): 27 s and 21 s and 25 s and 11 s and 23 s
- Duration of Hippocampal After-Discharge (dorsal hippocampus; 135 Mins.): 27 s and 16 s and 26 s and 19 s and 25 s
- Duration of Hippocampal After-Discharge (dorsal hippocampus; 180 Mins.): 25 s and 23 s and 24 s and 27 s
- Duration of Hippocampal After-Discharge (dorsal hippocampus; 225 Mins.): 29 s and 26 s and 25 s and 23 s and 34 s
- Duration of Hippocampal After-Discharge (dorsal hippocampus; 270 Mins.): 23 s and 26 s and 21 s and 40 s
- Percentage of myorelaxant animals ([6]; 1.5 mg/kg oral, after 30 minutes): 20%
- Percentage of myorelaxant animals ([6]; 1.5 mg/kg oral, after 180 minutes): 15%
- Percentage of myorelaxant animals ([6]; 3.0 mg/kg oral, after 30 minutes): 60%
- Percentage of myorelaxant animals ([6]; 3.0 mg/kg oral, after 180 minutes): 55%
- Percentage of myorelaxant animals ([6]; 6.0 mg/kg oral, after 30 minutes): 80%
- Percentage of myorelaxant animals ([6]; 6.0 mg/kg oral, after 180 minutes): 70%
- % Relaxed Animals ([7]; 5 mg/kg/os): 10%
- % Relaxed Animals ([7]; 10 mg/kg/os): 20%
- % Relaxed Animals ([7]; 20 mg/kg/os): 50%
- % Relaxed Animals ([7]; 40 mg/kg/os): 70%
- ED50 [7]: 21.5 mg/kg
- times less relaxant than compound 3 ([7]; mouse, in vivo): about 1.5 times
- times less relaxant than compound 4 ([7]; mouse, in vivo): about 5.6 times
- LD50 [8]: 6490 mg/kg
- ED50 ([9]; Table 11, species not given): 857 mg/kg
- hypnotic activity compared with Compounds 3 or 4 ([9]; in vivo): lower hypnotic activity
- Duration of narcosis ([10]; 1.0 mg/kg oral): 70.7 min
- Duration of narcosis ([10]; 2.0 mg/kg oral): 111.3 min
- % Decrease (conditioned avoidance responses) ([11]; 5 mg/kg oral): -12%
- Number of Conditioned Avoidance Responses ([11]; 5 mg/kg oral): 14.5 ± 0.7
- % Decrease (conditioned avoidance responses) ([11]; 10 mg/kg oral): -19%
- Number of Conditioned Avoidance Responses ([11]; 10 mg/kg oral): 13.4 ± 0.7
- % Decrease (conditioned avoidance responses) ([11]; 20 mg/kg oral): -17%
- Number of Conditioned Avoidance Responses ([11]; 20 mg/kg oral): 13.7 ± 0.9
- % Decrease (conditioned avoidance responses) ([11]; 40 mg/kg oral): -44%
- Number of Conditioned Avoidance Responses ([11]; 40 mg/kg oral): 9.3 ± 1.5
- activity in reducing conditioned avoidance responses compared with Compound 2 ([11]; in vivo): less active than Compound 2

SMILES: C#CCN1C(=O)CN=C(c2ccccc2Cl)c2cc(Cl)ccc21 [Compound 4, 7-chloro-2,3-dihydro-5-(2-chlorophenyl)-1-propargyl-1,H-1,4-benzodiazepine-2-one]
- ED50 [2]: 2.7 mg/kg
- animals with no attempt to resume previous posture ([3]; 30 mg/kg, at 21/2 hours): one animal out of every three
- reduction in postural tonus [3]: slightly more pronounced effect
- effect on duration of hippocampal after-discharge (dorsal hippocampus): no apparent effect on the duration of the paroxysm
- Duration of Hippocampal After-Discharge (dorsal hippocampus; 45 Mins.): 10 s and 20 s and 18 s and 14 s and 12 s
- Duration of Hippocampal After-Discharge (dorsal hippocampus; 90 Mins.): 7 s and 16 s and 20 s and 15 s and 11 s
- Duration of Hippocampal After-Discharge (dorsal hippocampus; 135 Mins.): 6 s and 15 s and 17.5 s and 13.5 s and 14 s
- Duration of Hippocampal After-Discharge (dorsal hippocampus; 180 Mins.): 8 s and 10.5 s and 18 s and 15 s
- Duration of Hippocampal After-Discharge (dorsal hippocampus; 225 Mins.): 9 s and 19 s and 18.5 s and 13 s and 10 s
- Duration of Hippocampal After-Discharge (dorsal hippocampus; 270 Mins.): 10 s and 22 s and 27 s and 13 s and 16 s
- % Relaxed Animals ([7]; 2 mg/kg/os): 40%
- % Relaxed Animals ([7]; 8 mg/kg/os): 60%
- % Relaxed Animals ([7]; 32 mg/kg/os): 80%
- Potency Against Comp. 1 ([7]; C.L. (1.67-18.80), X^2 parallelism 2.03): 5.60
- ED50 [7]: 3.93 mg/kg
- % Decrease (conditioned avoidance responses) ([11]; 5 mg/kg oral): -44%
- Number of Conditioned Avoidance Responses ([11]; 5 mg/kg oral): 9.2 ± 1.4
- % Decrease (conditioned avoidance responses) ([11]; 10 mg/kg oral): -85%
- Number of Conditioned Avoidance Responses ([11]; 10 mg/kg oral): 2.5 ± 1.5
